Reference: patent US20150274719A1, “AMINO-SUBSTITUTED IMIDAZO[1,2-A]PYRIDINECARBOXAMIDES AND THEIR USE” (BAYER PHARMA AKTIENGESELLSCHAFT, priority 2012, published 2015)

Biological target: T1, recombinant guanylate cyclase reporter cell line (Rattus norvegicus, UniProt P19686+P20595)
T1 construct: expressed in transfected cells; host or cells: recombinant reporter cell line
T1 sequence (P19686 1-690): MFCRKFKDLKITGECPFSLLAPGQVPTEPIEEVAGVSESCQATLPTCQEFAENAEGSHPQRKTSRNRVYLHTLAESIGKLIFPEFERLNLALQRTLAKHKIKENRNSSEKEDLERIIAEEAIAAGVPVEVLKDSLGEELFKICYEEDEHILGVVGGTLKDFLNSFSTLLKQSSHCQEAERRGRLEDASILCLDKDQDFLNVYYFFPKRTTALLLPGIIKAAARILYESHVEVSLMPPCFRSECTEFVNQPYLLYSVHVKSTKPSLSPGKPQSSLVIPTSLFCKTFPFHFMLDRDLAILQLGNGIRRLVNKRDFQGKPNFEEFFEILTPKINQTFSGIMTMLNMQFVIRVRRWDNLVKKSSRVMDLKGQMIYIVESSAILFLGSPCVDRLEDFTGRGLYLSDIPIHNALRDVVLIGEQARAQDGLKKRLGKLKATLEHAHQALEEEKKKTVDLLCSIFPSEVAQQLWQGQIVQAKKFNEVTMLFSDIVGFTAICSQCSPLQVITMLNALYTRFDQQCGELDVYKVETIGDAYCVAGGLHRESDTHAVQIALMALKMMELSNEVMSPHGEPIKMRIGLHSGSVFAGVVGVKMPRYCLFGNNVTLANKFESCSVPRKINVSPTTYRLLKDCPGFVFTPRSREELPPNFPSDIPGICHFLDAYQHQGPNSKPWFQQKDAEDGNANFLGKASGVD
T1 sequence (P20595 1-619): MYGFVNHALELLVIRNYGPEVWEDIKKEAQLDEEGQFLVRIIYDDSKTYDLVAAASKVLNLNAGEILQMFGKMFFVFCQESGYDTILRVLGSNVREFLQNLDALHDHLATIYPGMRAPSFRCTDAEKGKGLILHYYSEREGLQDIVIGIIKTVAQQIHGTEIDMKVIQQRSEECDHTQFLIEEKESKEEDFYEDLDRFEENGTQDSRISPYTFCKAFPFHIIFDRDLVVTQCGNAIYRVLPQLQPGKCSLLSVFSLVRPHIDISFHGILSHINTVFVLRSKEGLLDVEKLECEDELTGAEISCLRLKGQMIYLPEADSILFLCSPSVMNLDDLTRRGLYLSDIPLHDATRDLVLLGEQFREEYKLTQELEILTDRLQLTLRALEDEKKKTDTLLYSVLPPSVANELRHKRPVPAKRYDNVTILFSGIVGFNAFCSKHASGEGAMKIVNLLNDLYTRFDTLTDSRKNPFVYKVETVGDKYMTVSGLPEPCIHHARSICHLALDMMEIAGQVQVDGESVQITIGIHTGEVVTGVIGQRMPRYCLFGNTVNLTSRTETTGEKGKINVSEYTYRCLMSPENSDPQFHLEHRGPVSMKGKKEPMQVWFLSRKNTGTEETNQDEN
Assay: Action on recombinant guanylate cyclase reporter cell line
Format: cell-based
Details: in some cases mean values from individual determinations
Summary of the method: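 MEC values, meaning the lowest concentration producing a detectable response, were taken from a recombinant cyclase reporter cell assay. Where repeated, individual determinations were averaged.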

SMILES	MEC (minimal effective concentration) [µM]
Cc1cc(OCCC(C)C)c2nc(C)c(C(=O)NCC(C)(N)CC(C)C)n2c1 (racemic) [Example 249, rac-N-(2-Amino-2,4-dimethylpentyl)-2,6-dimethyl-8-(3-methylbutoxyl)imidazo[1,2-a]pyridine-3-carboxamide]	1.00
Cc1nc2c(OCc3c(F)cccc3F)cccn2c1C(=O)NCC1CCc2ccccc2N1 (racemic) [Example 250, rac-8-[(2,6-Difluorobenzyl)oxy]-2-methyl-N-(1,2,3,4-tetrahydroquinolin-2-ylmethyl)imidazo[1,2-a]pyridine-3-carboxamide]	1.00
CCC(C)(N)CNC(=O)c1c(C)nc2c(OCc3c(F)cccc3F)cccn12 (racemic) [Example 254, rac-N-(2-Amino-2-methylbutyl)-8-[(2,6-difluorobenzyl)oxy]-2-methylimidazo[1,2-a]pyridine-3-carboxamide]	0.30
Cc1cc(OCCC(C(F)(F)F)C(F)(F)F)c2nc(C)c(C(=O)NCC(C)(N)CC(C)C)n2c1 (racemic) [Example 258, rac-N-(2-Amino-2,4-dimethylpentyl)-2,6-dimethyl-8-[4,4,4-trifluoro-3-(trifluoromethyl)butoxy]-imidazo[1,2-a]pyridine-3-carboxamide]	1.00
Cc1cc(OCc2c(F)cccc2F)c2nc(C)c(C(=O)NCC(C)(N)C3CC3)n2c1 (racemic) [Example 259, rac-N-(2-Amino-2-cyclopropylpropyl)-8-[(2,6-difluorobenzyl)oxy]-2,6-dimethylimidazo[1,2-a]-pyridine-3-carboxamide]	0.03
Cc1cc(OCc2c(F)cccc2F)c2nc(C)c(C(=O)NCC(C)(N)CCOCc3ccccc3)n2c1 (racemic) [Example 262, rac-N-[2-Amino-4-(benzyloxy)-2-methylbutyl]-8-[(2,6-difluorobenzyl)oxy]-2,6-dimethylimidazo-[1,2-a]pyridine-3-carboxamide]	0.10
Cc1nc2c(OCc3c(F)cccc3F)cccn2c1C(=O)NCC(C)(N)COCc1ccccc1 (racemic) [Example 263, rac-N-[2-amino-3-(benzyloxy)-2-methylpropyl]-8-[(2,6-difluorobenzyl)oxy]-2-methylimidazo[1,2-a]pyridine-3-carboxamide]	1.00
Cc1nc2c(OCc3c(F)cccc3F)cccn2c1C(=O)NCC(C)(N)CCOCc1ccccc1 (racemic) [Example 264, rac-N-[2-amino-4-(benzyloxy)-2-methylbutyl]-8-[(2,6-difluorobenzyl)oxy]-2-methylimidazo[1,2-a]pyridine-3-carboxamide]	0.03
Cc1cc(OCc2c(F)cccc2F)c2nc(C)c(C(=O)NCC(C)(N)COCc3ccccc3)n2c1 (racemic) [Example 265, rac-N-[2-amino-3-(benzyloxy)-2-methylpropyl]-8-[(2,6-difluorobenzyl)oxy]-2,6-dimethylimidazo[1,2-a]pyridine-3-carboxamide]	0.30
Cc1cc(OCc2c(F)cccc2F)c2nc(C)c(C(=O)NCC(C)(N)CCO)n2c1 (racemic) [Example 270, rac-N-(2-Amino-4-hydroxy-2-methylbutyl)-8-[(2,6-difluorobenzyl)oxy]-2,6-dimethylimidazo[1,2-a]pyridine-3-carboxamide]	1.00
Cc1nc2c(OCc3c(F)cccc3F)cccn2c1C(=O)NCC(C)(N)CO (racemic) [Example 273, rac-N-(2-Amino-3-hydroxy-2-methylpropyl)-8-[(2,6-difluorobenzyl)oxy]-2-methylimidazo[1,2-a]-pyridine-3-carboxamide]	1.00
CCCC(C)(N)CNC(=O)c1c(C)nc2c(OCc3c(F)cccc3F)c(F)ccn12 (racemic) [Example 277, rac-N-(2-Amino-2-methylpentyl)-8-[(2,6-difluorobenzyl)oxy]-7-fluoro-2-methylimidazo[1,2-a]-pyridine-3-carboxamide]	1.00
CCCC(C)(N)CNC(=O)c1c(C)nc2c(OCc3c(F)ccc(F)c3F)cc(C)cn12 (racemic) [Example 293, rac-N-(2-amino-2-methylpentyl)-2,6-dimethyl-8-[(2,3,6-trifluorobenzyl)oxy]imidazo[1,2-a]pyridine-3-carboxamide]	0.03
Cc1cc(OCc2c(F)cccc2F)c2nc(C)c(C(=O)NCC(C)(N)Cc3ccc(F)cc3)n2c1 (racemic) [Example 296, rac-N-[2-amino-3-(4-fluorophenyl)-2-methylpropyl]-8-[(2,6-difluorobenzyl)oxy]-2,6-dimethylimidazo[1,2-a]pyridine-3-carboxamide]	0.10
Cc1cc(OCc2c(F)cccc2F)c2nc(C)c(C(=O)NCC(C)(N)Cc3ccccn3)n2c1 (racemic) [Example 297, rac-N-[2-amino-2-methyl-3-(pyridin-2-yl)propyl]-8-[(2,6-difluorobenzyl)oxy]-2,6-dimethylimidazo[1,2-a]pyridine-3-carboxamide]	0.10
Cc1cc(OCc2c(F)cccc2F)c2nc(C)c(C(=O)NC3CCNCC3(F)F)n2c1 (racemic) [Example 299, rac-8-[(2,6-difluorobenzyl)oxy]-N-(3,3-difluoropiperidin-4-yl)-2,6-dimethylimidazo[1,2-a]pyridine-3-carboxamide]	0.10
CCCC(C)(N)CNC(=O)c1c(CC)nc2c(OCc3c(F)cccc3F)cc(C)cn12 (racemic) [Example 301, rac-N-(2-amino-2-methylpentyl)-8-[(2,6-difluorobenzyl)oxy]-2-ethyl-6-methylimidazo[1,2-a]pyridine-3-carboxamide]	0.10
Cc1cc(OCc2c(F)cccc2F)c2nc(C)c(C(=O)NC3CCNC(C(F)(F)F)C3)n2c1 (racemic) [Example 302, rac-8-[(2,6-difluorobenzyl)oxy]-2,6-dimethyl-N-[2-(trifluoromethyl)piperidin-4-yl]imidazo[1,2-a]pyridine-3-carboxamide]	0.10
Cc1cc(OCc2c(F)cccc2F)c2nc(C)c(C(=O)NCC(C)(N)Cc3nc4ccccc4s3)n2c1 (racemic) [Example 310, rac-N-[2-amino-3-(1,3-benzothiazol-2-yl)-2-methylpropyl]-8-[(2,6-difluorobenzyl)oxy]-2,6-dimethylimidazo[1,2-a]pyridine-3-carboxamide]	0.30
CCCC(C)(N)CNC(=O)c1c(C)nc2c(OCc3c(F)c(F)cc(F)c3F)cc(C)cn12 (racemic) [Example 311, rac-N-(2-amino-2-methylpentyl)-2,6-dimethyl-8-[(2,3,5,6-tetrafluorobenzyl)oxy]imidazo[1,2-a]pyridine-3-carboxamide]	0.30
Cc1cc(OCc2c(F)cccc2F)c2nc(C)c(C(=O)NC3CNCC(F)(F)C3)n2c1 (racemic) [Example 312, rac-8-[(2,6-difluorobenzyl)oxy]-N-(5,5-difluoropiperidin-3-yl)-2,6-dimethylimidazo[1,2-a]pyridine-3-carboxamide]	0.30
Cc1cc(OCc2c(F)cccc2F)c2nc(C)c(C(=O)NC3CCCCNC3)n2c1 (racemic) [Example 316, rac-N-(azepan-3-yl)-8-[(2,6-difluorobenzyl)oxy]-2,6-dimethylimidazo[1,2-a]pyridine-3-carboxamide]	0.30
CCCC(C)(N)CNC(=O)c1c(C)nc2c(OCc3cccc(C)c3F)cc(C)cn12 (racemic) [Example 317, rac-N-(2-amino-2-methylpentyl)-8-[(2-fluoro-3-methylbenzyl)oxy]-2,6-dimethylimidazo[1,2-a]pyridine-3-carboxamide]	0.30
